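Method: 48-hour compound exposure of cells in 96-well plates, five concentrations, linear interpolation of endpoints. GI50: concentration for 50% inhibition of growth.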 The source made the active and inactive calls. Cut-off read from the data, not from the text of the source: active = GI50 up to about 1.1 µM and inactive = higher.
Legend:
Experiment in all cases: DTP human tumour cell line panel, 48 h
K562 = system: K562
MCF7 = system: MCF7
SW-620 = system: SW-620
RPMI-8226 = system: RPMI-8226
NCI-H226 = system: NCI-H226
NCI-H23 = system: NCI-H23
KM12 = system: KM12
OVCAR-8 = system: OVCAR-8
Hs-578T = system: Hs-578T
SK-MEL-2 = system: SK-MEL-2
RXF 393 = system: RXF 393
UACC-257 = system: UACC-257
786-0 = system: 786-0
SN12C = system: SN12C
SNB-19 = system: SNB-19
PC-3 = system: PC-3
MOLT-4 = system: MOLT-4
SK-MEL-28 = system: SK-MEL-28
A549 = system: A549
NCI-H522 = system: NCI-H522

Measured: GI50

CCOC(=O)c1cn2c(n1)sc1cc(Cl)cc(Cl)c12
inactive: K562 > 100 µM | MCF7 > 100 µM | SW-620 > 100 µM | RPMI-8226 > 100 µM | NCI-H226 > 100 µM | NCI-H23 > 100 µM | KM12 > 100 µM | OVCAR-8 > 100 µM | Hs-578T > 100 µM | SK-MEL-2 > 100 µM | RXF 393 > 100 µM | UACC-257 > 100 µM | 786-0 > 100 µM | SN12C > 100 µM | SNB-19 > 100 µM | PC-3 > 100 µM | MOLT-4 > 100 µM | SK-MEL-28 > 100 µM | A549 > 100 µM | NCI-H522 > 100 µM

CCCCCCCCOC1C(O)C(O)C(O)C(O)C12CO2 (stereo not given)
inactive: K562 38.5 µM | MCF7 46.5 µM | SW-620 45.4 µM | RPMI-8226 50.2 µM | NCI-H226 86.1 µM | NCI-H23 16.1 µM | KM12 43.9 µM | OVCAR-8 62.7 µM | Hs-578T 54.5 µM | SK-MEL-2 53.8 µM | RXF 393 29 µM | UACC-257 > 100 µM | 786-0 73.8 µM | SN12C 51.2 µM | SNB-19 91.4 µM | PC-3 55.3 µM | MOLT-4 38.9 µM | SK-MEL-28 > 100 µM | A549 49.5 µM | NCI-H522 26.7 µM

COC(=O)CCC(C)[C@H]1CCC2C3C(C[C@H](OC(C)=O)[C@@]21C)[C@@]1(C)CCC2(C[C@H]1C[C@H]3OC(C)=O)OOC1(CCCC1)OO2 (stereo not given in full)
inactive: K562 6.3 µM | MCF7 31.5 µM | SW-620 51.9 µM | RPMI-8226 2.47 µM | NCI-H226 27.9 µM | NCI-H23 9.18 µM | KM12 23.3 µM | OVCAR-8 34.4 µM | Hs-578T 16.5 µM | SK-MEL-2 > 100 µM | RXF 393 63.1 µM | UACC-257 39.2 µM | 786-0 29.6 µM | SN12C 42.5 µM | SNB-19 > 100 µM | PC-3 4.47 µM | MOLT-4 4.28 µM | SK-MEL-28 > 100 µM | A549 12.9 µM | NCI-H522 23.4 µM

COc1ccc(C2CC(c3c(O)ccc4ccccc34)=NN2c2ccc([N+](=O)[O-])cc2[N+](=O)[O-])cc1OC (stereo not given)
inactive: K562 3.47 µM | MCF7 17.9 µM | SW-620 39.9 µM | RPMI-8226 3.87 µM | NCI-H226 13.9 µM | NCI-H23 6.82 µM | KM12 13.2 µM | OVCAR-8 5.32 µM | Hs-578T 19.4 µM | SK-MEL-2 19.4 µM | RXF 393 24.4 µM | UACC-257 22.4 µM | 786-0 29 µM | SN12C 29.8 µM | SNB-19 15.3 µM | PC-3 11.5 µM | MOLT-4 4.78 µM | SK-MEL-28 34.2 µM | A549 17.1 µM | NCI-H522 2.46 µM

O=C(c1nc2ccc([N+](=O)[O-])cc2nc1O)C(O)c1ccc2c(c1)OCO2 (stereo not given)
inactive: K562 > 78.9 µM | MCF7 96.8 µM | SW-620 > 100 µM | RPMI-8226 55.5 µM | NCI-H226 > 100 µM | NCI-H23 > 100 µM | KM12 > 51.2 µM | OVCAR-8 > 100 µM | Hs-578T > 100 µM | SK-MEL-2 > 100 µM | RXF 393 > 100 µM | UACC-257 > 100 µM | 786-0 > 100 µM | SN12C > 100 µM | SNB-19 > 100 µM | PC-3 > 100 µM | MOLT-4 > 100 µM | SK-MEL-28 > 100 µM | A549 > 100 µM | NCI-H522 14.8 µM
